Experimental data published in US20220162215A1, “COMPOSITIONS AND METHODS OF USING THE SAME FOR TREATMENT OF NEURODEGENERATIVE AND MITOCHONDRIAL DISEASE” (MITOKININ, INC., priority 2019, published 2022).
Like-named read-outs stand apart in the source and are kept apart here.

How the values were obtained:
[1] = Visual inspection of crystallization; assay type: physicochemical; set-up: key: 1: yes crystals; 0: no crystals; conditions: Tables 5A-5D
Protocol: (§2) Briefly, the Hela MKYP (Mito-Keima/YFP-Parkin) cells were seeded at 10K cells/well. EP/MTK compounds were added at seeding (cells were still in suspension). The cells were incubated with the EP/MTK compounds for 16 hours, then 1 μM FCCP/oligomycin was added for 6 hours. Prior to harvesting, cells were scored by eye under 20× magnification for the presence or absence of crystalline or aggregated compound, or round cells.

HeLa MKYP cells [2] = experiment: Human mitophagy assay (HeLa MKYP, mtKeima FACS, FCCP/oligomycin); assay type: cell-based
Protocol: (§1) Briefly, HeLa MKYP cells were plated at 10,000 cells/well in 96 well plates along with compounds at various concentrations. Following 16 hrs of incubation, cells were treated with 1 uM FCCP/oligomycin for 6 hours, then analyzed via FACS for the presence of mitochondria in lysosomes (as determined by an emissions spectrum shift from the pH-sensitive mtKeima tag). Examples are shown in FIG. 1 through FIG. 13 below.

HeLa MKYP cells [3] = experiment: Toxicity / cell death measured by DAPI staining (take-up); assay type: cell-based; conditions: 50 μM
Protocol: H2O2 treatment was performed as a control for cell death as measured by DAPI staining.
as §1, with “tag).” for “tag). Examples are shown in FIG. 1 through FIG. 13 below.”

[4] = test system: Hela MKYP (Mito-Keima/YFP-Parkin) cells; experiment: Inspection of round cells; conditions: Tables 6A-6D
Protocol: as §2

[5] = Homo sapiens, HeLa, Table 3, read-out: Potency at 1 μM F/O toxin* (EC50 of mitophagy activation)
[6] = Homo sapiens, HeLa, Table 3 Supplement A, as measured in Table 3, read-out: Potency (EC50 Max Mitophagy) (μM)*

Structure (SMILES): CN(C)C1CCC(CNc2ncnc3[nH]c(C(F)(F)F)cc23)CC1 (centres unmarked) [Compound 50]
- Visual inspection of crystallization ([1]; 1.6 μM): 0
- Visual inspection of crystallization ([1]; 3.1 μM): 0
- Visual inspection of crystallization ([1]; 6.3 μM): 0
- Visual inspection of crystallization ([1]; 12.5 μM): 0
- Visual inspection of crystallization ([1]; 25.0 μM): 0
- Visual inspection of crystallization ([1]; 50.0 μM): 0
- EC50 (HeLa MKYP cells [2]; [5]): > 50 µM
- Potency (EC50 Max Mitophagy) (μM)* (HeLa MKYP cells [2]; Table 3 Supplement A, as measured in Table 3): 0.01 µM
- Toxicity (% positive for DAPI takeup @ 50 μM) (HeLa MKYP cells [3]; Table 3): 5.2%
- Toxicity (% positive for DAPI take-up at 50 μM)* (HeLa MKYP cells [3]; Table 3 Supplement A): 5.16%
- Inspection of round cells ([4]; 1.6 μM): 0
- Inspection of round cells ([4]; 3.1 μM): 0
- Inspection of round cells ([4]; 6.3 μM): 0
- Inspection of round cells ([4]; 12.5 μM): 0
- Inspection of round cells ([4]; 25.0 μM): 0
- Inspection of round cells ([4]; 50.0 μM): 0

Structure (SMILES): C[C@@H](Nc1ncnc2[nH]c(C(F)(F)F)cc12)c1cncnc1 [Compound 70]
- Visual inspection of crystallization ([1]; 1.6 μM): 0
- Visual inspection of crystallization ([1]; 3.1 μM): 0
- Visual inspection of crystallization ([1]; 6.3 μM): 0
- Visual inspection of crystallization ([1]; 12.5 μM): 0
- Visual inspection of crystallization ([1]; 25.0 μM): 0
- Visual inspection of crystallization ([1]; 50.0 μM): 0
- EC50 (HeLa MKYP cells [2]; [5]): 21.6 µM
- EC50 (HeLa MKYP cells [2]; [6]): 21.6 µM
- Toxicity (% positive for DAPI take-up at 50 μM)* (HeLa MKYP cells [3]; human): 22.95%
- Toxicity (% positive for DAPI takeup @ 50 μM) (HeLa MKYP cells [3]; human): 22.9%
- Inspection of round cells ([4]; 1.6 μM): 0
- Inspection of round cells ([4]; 3.1 μM): 0
- Inspection of round cells ([4]; 6.3 μM): 0
- Inspection of round cells ([4]; 12.5 μM): 0
- Inspection of round cells ([4]; 25.0 μM): 0
- Inspection of round cells ([4]; 50.0 μM): 0

Structure (SMILES): CCC(Nc1ncnc2[nH]c(C(F)(F)F)cc12)c1cncnc1 (centres unmarked) [Compound 43]
- Visual inspection of crystallization ([1]; 1.6 μM): 0
- Visual inspection of crystallization ([1]; 3.1 μM): 0
- Visual inspection of crystallization ([1]; 6.3 μM): 0
- Visual inspection of crystallization ([1]; 12.5 μM): 0
- Visual inspection of crystallization ([1]; 25.0 μM): 0
- Visual inspection of crystallization ([1]; 50.0 μM): 0
- EC50 (HeLa MKYP cells [2]; [5]): 18.8 µM
- EC50 (HeLa MKYP cells [2]; [6]): 18.8 µM
- Toxicity (% positive for DAPI takeup @ 50 μM) (HeLa MKYP cells [3]; Table 3): 15.9%
- Toxicity (% positive for DAPI take-up at 50 μM)* (HeLa MKYP cells [3]; Table 3 Supplement A): 15.86%
- Inspection of round cells ([4]; 1.6 μM): 0
- Inspection of round cells ([4]; 3.1 μM): 0
- Inspection of round cells ([4]; 6.3 μM): 0
- Inspection of round cells ([4]; 12.5 μM): 0
- Inspection of round cells ([4]; 25.0 μM): 0
- Inspection of round cells ([4]; 50.0 μM): 0

Structure (SMILES): CCCCNc1ncnc2[nH]c(C(F)(F)F)c(C)c12 [Compound 68]
- Visual inspection of crystallization ([1]; 1.6 μM): 0
- Visual inspection of crystallization ([1]; 3.1 μM): 0
- Visual inspection of crystallization ([1]; 6.3 μM): 0
- Visual inspection of crystallization ([1]; 12.5 μM): 0
- Visual inspection of crystallization ([1]; 25.0 μM): 0
- Visual inspection of crystallization ([1]; 50.0 μM): 0
- EC50 (HeLa MKYP cells [2]; [5]): > 50 µM
- EC50 (HeLa MKYP cells [2]; [6]): > 25 µM
- Toxicity (% positive for DAPI takeup @ 50 μM) (HeLa MKYP cells [3]; Table 3): 11.9%
- Toxicity (% positive for DAPI take-up at 50 μM)* (HeLa MKYP cells [3]; Table 3 Supplement A): 11.94%
- Inspection of round cells ([4]; 1.6 μM): 0
- Inspection of round cells ([4]; 3.1 μM): 0
- Inspection of round cells ([4]; 6.3 μM): 0
- Inspection of round cells ([4]; 12.5 μM): 0
- Inspection of round cells ([4]; 25.0 μM): 0
- Inspection of round cells ([4]; 50.0 μM): 0

Structure (SMILES): C[C@H](Nc1ncnc2[nH]cnc12)c1ccccc1 [Compound 27]
- Visual inspection of crystallization ([1]; 1.6 μM): 0
- Visual inspection of crystallization ([1]; 3.1 μM): 0
- Visual inspection of crystallization ([1]; 6.3 μM): 0
- Visual inspection of crystallization ([1]; 12.5 μM): 0
- Visual inspection of crystallization ([1]; 25.0 μM): 0
- Visual inspection of crystallization ([1]; 50.0 μM): 0
- EC50 (HeLa MKYP cells [2]; [5]): 2 µM
- EC50 (HeLa MKYP cells [2]; [6]): 2.09 µM
- Toxicity (% positive for DAPI takeup @ 50 μM) (HeLa MKYP cells [3]; Table 3): 11.7%
- Toxicity (% positive for DAPI take-up at 50 μM)* (HeLa MKYP cells [3]; Table 3 Supplement A): 13.52%
- Inspection of round cells ([4]; 1.6 μM): 0
- Inspection of round cells ([4]; 3.1 μM): 0
- Inspection of round cells ([4]; 6.3 μM): 0
- Inspection of round cells ([4]; 12.5 μM): 0
- Inspection of round cells ([4]; 25.0 μM): 0
- Inspection of round cells ([4]; 50.0 μM): 0

Structure (SMILES): Cc1nc2c(N[C@H](C)c3ccccc3)ncnc2[nH]1 [Compound 73]
- EC50 (HeLa MKYP cells [2]; [5]): > 50 µM
- EC50 (HeLa MKYP cells [2]; [6]): > 25 µM
- Toxicity (% positive for DAPI takeup @ 50 μM) (HeLa MKYP cells [3]; Table 3): 9.7%
- Toxicity (% positive for DAPI take-up at 50 μM)* (HeLa MKYP cells [3]; Table 3 Supplement A): 9.69%

Structure (SMILES): COc1ccc2c(c1)CCCC2Nc1ncnc2[nH]c(C(F)(F)F)cc12 (centres unmarked) [Compound 14]
- activation at 1.6 µM (HeLa MKYP cells [2]; Homo sapiens, HeLa, 6 h, Table 2, % activation of mitophagy at 1.6 μM treatment of the compound, read-out: Potency at 1 μM F/O toxin*): 29.8%
- Toxicity (% positive for DAPI takeup @ 50 μM) (HeLa MKYP cells [3]; Table 2): 95.5%
